From patent US20190364896A1, “SYNERGISTIC WEED CONTROL FROM APPLICATIONS OF PYRIDINE CARBOXYLIC ACID HERBICIDES AND ALS INHIBITORS” (Dow AgroSciences LLC, priority 2014, published 2019)
Several values for one entry are separate records, joined by “and”; a condition that tells them apart may be missing. Equal values may be shown once.

Tests used:
Assay in all cases: Postemergence herbicidal activity, greenhouse trial (visual injury 0-100%)
Type in all cases: in vivo
[1] = system: brown mustard (Brassica juncea, BRSJU); conditions: Compound 1 5 g ae/ha
[2] = system: poinsettia (Euphorbia heterophylla, EPHHL); conditions: for % visual injury Obs: EPHHL
Outline: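 Greenhouse-grown plants at the second to third true leaf stage were sprayed with two-way mixtures in 1.5% v/v Agri-dex crop oil concentrate at 187 L/ha; rates in g ae/ha for component (a) and g ai/ha for component (b). Injury scored visually 0–100% versus solvent-blank controls after 20–22 d, with expected mixture effects from Colby's equation.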

[3] = system: blackgrass (Alopecurus myosuroides, ALOMY)
Outline: (§1)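 Plants grown in a greenhouse (about 23/22 °C day/night, ~14-h photoperiod) to the second or third true leaf stage were sprayed overhead at 187 L/ha with two-way mixtures in 1.5% v/v crop oil concentrate. Visual injury relative to solvent-blank controls was scored 0–100% after 20-22 d.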

[4] = system: grain sorghum (Sorghum vulgare, SORVU)
Outline: as §1

Nc1c(F)c(-c2ccc3cc[nH]c3c2F)nc(C(=O)O)c1Cl [Compound 1]
% visual injury Obs [1]: 60%
% visual injury Obs ([2]; Compound 1 5 g ae/ha): 97%
% visual injury Obs ([2]; Compound 1 10 g ae/ha): 97%
pest or weed control at 5 g/ha ([2]; Euphorbia heterophylla, post-emergence, 5 g ae/ha, read-out: % visual injury Obs): 97%
pest or weed control at 10 g/ha ([2]; Euphorbia heterophylla, post-emergence, 10 g ae/ha, read-out: % visual injury Obs): 97%
% visual injury Obs ([3]; 5 g ae/ha): 0%
% visual injury Obs ([3]; 10 g ae/ha): 0%
% visual injury Obs ([3]; ALOMY, Compound 1 5 g ae/ha): 0%
% visual injury Obs ([3]; ALOMY, Compound 1 10 g ae/ha): 0%
% visual injury Obs ([4]; 5 g ae/ha): 10% and 0%
% visual injury Obs ([4]; 10 g ae/ha): 50%
% visual injury Obs ([4]; SORVU, Compound 1 5 g ae/ha): 0% and 10%
% visual injury Obs ([4]; SORVU, Compound 1 10 g ae/ha): 50%
